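Five concentrations, 48 hours, 96-well plates. GI50 marks 50% less growth.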 Calls of active or inactive are those of the source. Rule as the data show it: active = GI50 up to about 1.1 µM and inactive = higher.
Key:
Experiment in all cases: inhibition of tumour cell growth, NCI panel, 48 h
HL-60 = test system: HL-60
DU-145 = test system: DU-145
HT-29 = test system: HT-29
SN12C = test system: SN12C
NCI-H226 = test system: NCI-H226
HCT-116 = test system: HCT-116
SF-295 = test system: SF-295
NCI-H23 = test system: NCI-H23
MCF7 = test system: MCF7
CAKI-1 = test system: CAKI-1
CCRF-CEM = test system: CCRF-CEM
HCT-15 = test system: HCT-15
SF-539 = test system: SF-539
786-0 = test system: 786-0
NCI-H460 = test system: NCI-H460
UO-31 = test system: UO-31
UACC-62 = test system: UACC-62
MDA-MB-231 = test system: MDA-MB-231

SMILES	GI50 (HL-60)	GI50 (DU-145)	GI50 (HT-29)	GI50 (SN12C)	GI50 (NCI-H226)	GI50 (HCT-116)	GI50 (SF-295)	GI50 (NCI-H23)	GI50 (MCF7)	GI50 (CAKI-1)	GI50 (CCRF-CEM)	GI50 (HCT-15) [µM]	GI50 (SF-539)	GI50 (786-0)	GI50 (NCI-H460)	GI50 (UO-31)	GI50 (UACC-62)	GI50 (MDA-MB-231)
NC(=O)c1cc(N(CCO)CCO)c([N+](=O)[O-])cc1[N+](=O)[O-]	> 100 µM (inactive)	> 100 µM (inactive)	> 100 µM (inactive)	> 100 µM (inactive)	> 100 µM (inactive)	> 100 µM (inactive)	> 100 µM (inactive)	> 100 µM (inactive)	> 100 µM (inactive)	> 100 µM (inactive)	> 100 µM (inactive)	> 100	> 100 µM (inactive)	> 100 µM (inactive)	> 100 µM (inactive)	> 100 µM (inactive)	> 100 µM (inactive)	–
O=c1[nH]c2nccnc2c2c([N+](=O)[O-])cccc12	> 100 µM (inactive)	> 100 µM (inactive)	> 100 µM (inactive)	> 100 µM (inactive)	95.5 µM (inactive)	> 100 µM (inactive)	> 100 µM (inactive)	> 100 µM (inactive)	> 100 µM (inactive)	–	> 100 µM (inactive)	> 100	> 100 µM (inactive)	> 100 µM (inactive)	> 100 µM (inactive)	44.1 µM (inactive)	> 100 µM (inactive)	–
C=C1C(=O)C=C[C@]2(C)CC[C@H]3C(=C)C(=O)O[C@@H]3[C@@H]12	1.9 µM (inactive)	2.09 µM (inactive)	1.56 µM (inactive)	2.96 µM (inactive)	–	0.195 µM (active)	15.1 µM (inactive)	2.63 µM (inactive)	0.738 µM (active)	2.22 µM (inactive)	0.579 µM (active)	0.785	0.562 µM (active)	0.461 µM (active)	12.1 µM (inactive)	1.43 µM (inactive)	1.96 µM (inactive)	4.08 µM (inactive)
CC[n+]1[b-](C(C)(C)C)n(/N=C(\C)C(C)(C)C)[b-](C(C)(C)C)[n+]1CC	–	–	> 100 µM (inactive)	> 100 µM (inactive)	72.9 µM (inactive)	> 100 µM (inactive)	> 100 µM (inactive)	> 100 µM (inactive)	> 100 µM (inactive)	> 100 µM (inactive)	> 100 µM (inactive)	> 100	> 100 µM (inactive)	> 100 µM (inactive)	> 100 µM (inactive)	> 100 µM (inactive)	> 100 µM (inactive)	> 100 µM (inactive)
COC(C)(C)C1=CCC(C)CC1 (configuration not stated)	> 10 µM (inactive)	> 100 µM (inactive)	> 100 µM (inactive)	> 100 µM (inactive)	–	> 100 µM (inactive)	> 100 µM (inactive)	> 100 µM (inactive)	41.8 µM (inactive)	> 100 µM (inactive)	–	> 100	> 100 µM (inactive)	> 100 µM (inactive)	> 100 µM (inactive)	> 100 µM (inactive)	> 100 µM (inactive)	–
C=C(C(=O)OC)[C@H]1CC/C(C)=C/CC[C@@](C)(O)C=CC[C@@]2(C)O[C@@H]2C1	–	22.9 µM (inactive)	15.2 µM (inactive)	47.4 µM (inactive)	> 100 µM (inactive)	18.8 µM (inactive)	> 100 µM (inactive)	24.1 µM (inactive)	40.8 µM (inactive)	24.1 µM (inactive)	–	24.2	21.5 µM (inactive)	17.6 µM (inactive)	> 100 µM (inactive)	21.4 µM (inactive)	31.9 µM (inactive)	56.9 µM (inactive)
O=C(CN1CCCC1=O)CS(=O)(=O)c1ccccc1	> 100 µM (inactive)	> 100 µM (inactive)	> 100 µM (inactive)	–	> 100 µM (inactive)	> 100 µM (inactive)	> 100 µM (inactive)	> 100 µM (inactive)	> 100 µM (inactive)	–	> 100 µM (inactive)	–	> 100 µM (inactive)	> 100 µM (inactive)	> 100 µM (inactive)	> 100 µM (inactive)	> 100 µM (inactive)	–
C[N+]12C=CC=C1C(N1CCCC1)c1scc(-c3ccc(Br)cc3)c12 (configuration not stated)	–	33.7 µM (inactive)	22.2 µM (inactive)	3.02 µM (inactive)	3.15 µM (inactive)	30.9 µM (inactive)	6.4 µM (inactive)	3.49 µM (inactive)	22.9 µM (inactive)	> 62.5 µM (inactive)	18.2 µM (inactive)	> 90.8	4 µM (inactive)	16.7 µM (inactive)	14.6 µM (inactive)	> 100 µM (inactive)	19.2 µM (inactive)	23.9 µM (inactive)
Cc1ccc(NNc2cc(=O)[nH]c(=O)[nH]2)cc1Cl	3.08 µM (inactive)	37 µM (inactive)	15 µM (inactive)	> 100 µM (inactive)	56.9 µM (inactive)	14.9 µM (inactive)	37.5 µM (inactive)	16.8 µM (inactive)	–	14.4 µM (inactive)	11.1 µM (inactive)	10.6	19.5 µM (inactive)	14.6 µM (inactive)	33.2 µM (inactive)	3.25 µM (inactive)	18.3 µM (inactive)	15.8 µM (inactive)
O=C1CN(c2ccc(Cl)cc2)C(=O)CN1NCNN1CC(=O)N(c2ccc(Cl)cc2)CC1=O	> 100 µM (inactive)	> 100 µM (inactive)	> 100 µM (inactive)	> 100 µM (inactive)	–	> 100 µM (inactive)	> 100 µM (inactive)	> 100 µM (inactive)	> 100 µM (inactive)	> 100 µM (inactive)	> 100 µM (inactive)	> 100	> 100 µM (inactive)	> 100 µM (inactive)	> 100 µM (inactive)	> 100 µM (inactive)	> 100 µM (inactive)	–
COC(=O)C12OC(C)(C(CC(=O)OC(C)(C)C)C1=O)C1C(=O)N(c3ccccc3)C(=O)C12 (configuration not stated)	–	> 100 µM (inactive)	> 100 µM (inactive)	> 100 µM (inactive)	> 100 µM (inactive)	> 100 µM (inactive)	> 100 µM (inactive)	> 100 µM (inactive)	–	> 100 µM (inactive)	> 100 µM (inactive)	> 100	–	> 100 µM (inactive)	> 100 µM (inactive)	> 100 µM (inactive)	> 100 µM (inactive)	> 100 µM (inactive)
CCOC(=O)O/N=C1/C(=C2/C(=O)Nc3ccccc32)Nc2ccccc21	4.95 µM (inactive)	2.87 µM (inactive)	10.1 µM (inactive)	4.41 µM (inactive)	–	3.03 µM (inactive)	8.73 µM (inactive)	4.47 µM (inactive)	3.69 µM (inactive)	1.86 µM (inactive)	2.87 µM (inactive)	2.7	–	5.92 µM (inactive)	3.13 µM (inactive)	3.65 µM (inactive)	8.32 µM (inactive)	11.6 µM (inactive)
Cc1ccc(/C(=C/C=C(C#N)C#N)Sc2cc(Cl)ccc2Cl)cc1	–	3.4 µM (inactive)	3.81 µM (inactive)	3.22 µM (inactive)	3.02 µM (inactive)	0.83 µM (active)	3.43 µM (inactive)	3.85 µM (inactive)	17.5 µM (inactive)	4.76 µM (inactive)	–	3.06	3.18 µM (inactive)	1.92 µM (inactive)	4.31 µM (inactive)	8.81 µM (inactive)	3.85 µM (inactive)	3.18 µM (inactive)
C=CCCON(C(=O)OC(C)(C)C)C(C)(C)C	> 100 µM (inactive)	> 100 µM (inactive)	> 100 µM (inactive)	> 100 µM (inactive)	> 100 µM (inactive)	> 100 µM (inactive)	> 100 µM (inactive)	> 100 µM (inactive)	–	> 100 µM (inactive)	> 100 µM (inactive)	> 100	> 100 µM (inactive)	> 100 µM (inactive)	> 100 µM (inactive)	> 100 µM (inactive)	> 100 µM (inactive)	> 100 µM (inactive)
CC1CC/C(=C\c2ccc(Cl)cc2)c2nc(N)c(C#N)c(-c3ccc(Cl)cc3)c21 (configuration not stated)	3.07 µM (inactive)	–	30.7 µM (inactive)	> 100 µM (inactive)	58.6 µM (inactive)	84.9 µM (inactive)	44.1 µM (inactive)	30.3 µM (inactive)	22.8 µM (inactive)	21.8 µM (inactive)	23.5 µM (inactive)	8.47	48.8 µM (inactive)	> 100 µM (inactive)	–	27.7 µM (inactive)	20.5 µM (inactive)	> 100 µM (inactive)
CC1CC(=O)NC2CC1C2(C)C (configuration not stated)	> 100 µM (inactive)	> 100 µM (inactive)	> 100 µM (inactive)	> 100 µM (inactive)	> 100 µM (inactive)	–	> 100 µM (inactive)	> 100 µM (inactive)	> 100 µM (inactive)	–	> 100 µM (inactive)	> 100	–	> 100 µM (inactive)	> 100 µM (inactive)	> 100 µM (inactive)	> 100 µM (inactive)	> 100 µM (inactive)
CON(C)C(=O)C(C)NC(=O)OCc1ccccc1 (configuration not stated)	> 100 µM (inactive)	> 100 µM (inactive)	> 100 µM (inactive)	> 100 µM (inactive)	> 100 µM (inactive)	> 100 µM (inactive)	> 100 µM (inactive)	> 100 µM (inactive)	> 100 µM (inactive)	–	> 100 µM (inactive)	> 100	> 100 µM (inactive)	> 100 µM (inactive)	> 100 µM (inactive)	> 100 µM (inactive)	> 100 µM (inactive)	–

From ChEMBL document CHEMBL1201862, “PubChem BioAssay data set” (2004)
